What was measured:
Type in all cases: functional, cell-based
Conditions in all cases: Homo sapiens
[1] = tested on: ATH-8 cell line; test: Antiviral activity against HIV-1 using CD4+ ATH8 cells at a concentration of 5 uM; No detectable activity
[2] = tested on: ATH-8 cell line; test: Antiviral activity against HIV-1 using CD4+ ATH8 cells at a concentration of 25 uM; moderately toxic
[3] = tested on: ATH-8 cell line; test: Antiviral activity against HIV-1 using CD4+ ATH8 cells at a concentration of 25 uM; No detectable activity

`Cc1cn([C@H]2C[C@H](OP(=O)(O)[Se]C[C@H]3O[C@@H](n4cc(C)c(=O)[nH]c4=O)C[C@@H]3O)[C@@H](CO)O2)c(=O)[nH]c1=O` was tested. Which Activity [1] did it give?
The Activity was “No activity”.

And the Activity [2]?
Its Activity is “Toxic”.

How did the Activity [1] turn out when `COP(=O)(O[C@H]1C[C@H](n2cc(C)c(=O)[nH]c2=O)O[C@@H]1CO)[Se]C[C@H]1O[C@@H](n2cc(C)c(=O)[nH]c2=O)C[C@@H]1O` (some centres undefined) was run?
Its Activity is “No activity”.

And the Activity [3]?
The Activity was “No activity”.

— ChEMBL document CHEMBL1149937, “A new class of dinucleotide analogues. The synthesis of 3-O-thymidylyl(5-deoxy-5-selene-thymidylyl)-Se-phosphoroselenolate, its O-methyl ester and methanephosphonate derivatives” (Bioorg Med Chem Lett, 1994)
